The results in this text go back to US20210371459A1, “DIMERIC PEPTIDE INHIBITORS OF APOPTOSIS PROTEINS” (Hepagene Therapeutics (HK) Limited, priority 2017, published 2021).

Holding throughout (settings): FP, probe AbuRPFK-5FAM, 60 min at 25° C.
Assay [1] has as its target T1, XIAP-BIR3 (Homo sapiens, UniProt P98170).
T1 construct: purchased Reaction Biology APT-11-374
Kind of assay: XIAP-BIR3 fluorescence polarization binding assay. The source says: (§1) IAPs are one main cause of cancer development and may result from overexpression of anti-apoptotic proteins. This protocol establishes three binding assays for XIAP Bir3 domain, cIAP1 and cIAP2 using FP (Fluorescence polarization) technology. The fluorescence probe used is a synthetic peptide conjugated to 5-carboxyfluorescein (AbuRPFK-5FAM). The fluorescence polarization value (mP) was detected by Envision, which was used to reflect the binding degree of protein and fluorescent marker. Reagents and equipment used in the assay are listed below, followed by the protocol.
(§2) • a) Prepare 100 times of the final cpd concentration in appropriate tube and transfer 5 uL compound (“cpd”) to 45 μL 1× reaction buffer with 10% DMSO. • b) The final reference cpd concentration is 10000, 3333.3, 1111.1, 370.4, 123.4, 41.2, 13.7, 4.57, 1.52, 0.51, 0.17 and 0 nM. So the 100 times of the concentration is 1000, 333.3, 111.1, 37.04, 12.34, 4.12, […], 0.15, 0.05, 0.017 and 0 μM. The final test cpds concentration is 3333.3, 1111.1, 370.4, 123.4, 41.2, 13.7, 4.57, 1.52, 0.51, 0.17, 0.057 and 0 nM. So the 100 times of the concentration is 333.3, 111.1, 37.04, 12.34, 4.12, […], 0.15, 0.05, 0.017, 0.0057 and 0 μM • c) Add 8 μL/well each dose enzyme to 384 well microplate (ProxiPlate-384 F Plus, 6008260) using multichannel pipette, prepared in step 2.1.1.2 • d) Centrifuge at 1000 rpm. • e) Add 2 μL/well cpd to 384 well microplate (ProxiPlate-384 F Plus, 6008260) using multichannel pipette, prepared in step a). • f) Centrifuge at 1000 rpm. RT, 15 min. • g) Start the assay by adding 10 uL/well substrate (prepared in step 2.1.1.3) to the same 384 well microplate using multichannel pipette • h) Centrifuge at 1000 rpm. • i) Cover the assay plate and incubate for 60 min at 25° C. • j) Read on Envision 2104 for mP and plot the IC50s with mP values. • k) Data analysis: IC50s were determined based on a non-linear regression analysis of data collected.

In assay [2] the target is T2, cIAP1-BIR3 (Homo sapiens, UniProt Q13490).
T2 construct: cIAP1-BIR3; Reaction Biology; APT-11-370; purchased Reaction Biology APT-11-370
T2 sequence (Q13490 253-363 limits assumed): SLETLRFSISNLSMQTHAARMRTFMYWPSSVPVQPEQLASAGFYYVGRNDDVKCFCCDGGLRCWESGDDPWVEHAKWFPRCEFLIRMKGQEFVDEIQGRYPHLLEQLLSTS
Kind of assay: cIAP1-BIR3 fluorescence polarization binding assay.
From the text: as §1, §2
In general terms: Fluorescence polarisation rises when a labelled molecule tumbles more slowly, as on binding a larger partner.

Assay [3] deals with T3, cIAP2-BIR3 (Homo sapiens, UniProt Q13489).
T3 construct: cIAP2-BIR3; Reaction Biology; APT-11-372; purchased Reaction Biology APT-11-372
T3 sequence (Q13489 238-349 limits assumed): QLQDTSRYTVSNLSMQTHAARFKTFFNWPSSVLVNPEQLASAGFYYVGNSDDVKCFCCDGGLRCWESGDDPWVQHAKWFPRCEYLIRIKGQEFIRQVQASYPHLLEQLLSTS
Briefly: cIAP2-BIR3 fluorescence polarization binding assay.
From the text: as §1, §2

Molecules are shown by their SMILES.

T1 sequence (P98170 241-356 limits assumed): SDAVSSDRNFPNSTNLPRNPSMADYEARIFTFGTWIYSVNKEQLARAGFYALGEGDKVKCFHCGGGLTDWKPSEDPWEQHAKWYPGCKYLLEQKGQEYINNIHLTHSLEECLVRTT

What is called IC50 is the concentration needed to halve the response being measured. With `CN[C@@H](C)C(=O)N[C@H](C(=O)N1CCC[C@H]1C(=O)N[C@@H]1CCCc2c1cccc2N1CCN(c2cccc3c2CCC[C@H]3NC(=O)[C@@H]2CCCN2C(=O)[C@@H](NC(=O)[C@H](C)NC)C2CCCCC2)CC1)C1CCCCC1` [Compound I, (2S)-1-[(2S)-2-Cyclohexyl-2-[(2S)-2-(methylamino)propanamido]acetyl]-N-[(1R)-5-[4-[(5R)-5-[(2S)-1-[(2S)-2-cyclohexyl-2-[(2S)-2-(methylamino)propanamido]acetyl]pyrrolidine-2-amido]-5,6,7,8-tetrahydronaphthalen-1-yl]piperazin-1-yl]-1,2,3,4-tetrahydronaphthalen-1-yl]pyrrolidine-2-carboxamide], the IC50 in assay [1] lay in the range of 0.01 to 0.1 µM; in assay [2], 0.0001 to 0.01 µM; in assay [3], 0.01 to 0.1 µM.

As to `CN[C@@H](C)C(=O)N[C@H](C(=O)N1CCC[C@H]1C(=O)N[C@@H]1CCCc2c1cccc2N1CCN(c2cccc3c2CCC[C@H]3NC(=O)[C@@H]2CCCN2C(=O)[C@@H](NC(=O)[C@H](C)NC)C(C)(C)C)CC1)C(C)(C)C` [Compound I-A, (2S,2′S,29S,34S)—N, N′-((1R,1′R)-5,5′-(Piperazine-1,4-diyl)bis(1,2,3,4-tetrahydronaphthalene-5,1-diyl))bis(1-((S)-3,3-dimethyl-2-((S)-2-(methylamino)propanamido)butanoyl)pyrrolidine-2-carboxamide)], the half-maximal inhibitory concentration (IC50) in assay [1] was in the range of 0.1 to 1 µM; in assay [2], 0.0001 to 0.01 µM; in assay [3], 0.01 to 0.1 µM.

`CC[C@H](NC(=O)[C@H](C)NC)C(=O)N1CCC[C@H]1C(=O)N[C@@H]1CCCc2c1cccc2N1CCN(c2cccc3c2CCC[C@H]3NC(=O)[C@@H]2CCCN2C(=O)[C@H](CC)NC(=O)[C@H](C)NC)CC1` [Compound I-B, (2S)-1-[(2S)-2-[(2S)-2-(Methylamino)propanamido]butanoyl]-N-[(1R)-5-[4-[(5R)-5-[(2S)-1-[(2S)-2-[(2S)-2-(methylamino)propanamido]butanoyl]pyrrolidine-2-amido]-5,6,7,8-tetrahydronaphthalen-1-yl]piperazin-1-yl]-1,2,3,4-tetrahydronaphthalen-1-yl]pyrrolidine-2-carboxamide]: the results for the IC50 in assay [1], in assay [2] and in assay [3] were 0.1 to 1 µM, 0.0001 to 0.01 µM and 0.01 to 0.1 µM, respectively.

Turning to `CN[C@@H](C)C(=O)N[C@H](C(=O)N1CCC[C@H]1C(=O)N[C@@H]1CCCc2c1cccc2N1CCN(c2cccc3c2CCC[C@H]3NC(=O)[C@@H]2CCCN2C(=O)[C@@H](NC(=O)[C@H](C)NC)C(C)C)CC1)C(C)C` [Compound I-C, (S)-1-((S)-3-Methyl-2-((S)-2-(methylamino)propanamido)butanoyl)-N—((R)-5-(4-((R)-5-((S)-1-((S)-3-methyl-2-((S)-2-(methylamino)propanamido)butanoyl)pyrrolidine-2-carboxamido)-5,6,7,8-tetrahydronaphthalen-1-yl)piperazin-1-yl)-1,2,3,4-tetrahydronaphthalen-1-yl)pyrrolidine-2-carboxamide], the IC50 was in the range of 0.01 to 0.1 µM in assay [1], 0.0001 to 0.01 µM in assay [2] and 0.01 to 0.1 µM in assay [3].

Consider `CN[C@@H](C)C(=O)N[C@H](C(=O)N1C[C@@H](OCCCN2CCN(CCCO[C@H]3C[C@@H](C(=O)N[C@@H]4CCCc5ccccc54)N(C(=O)[C@@H](NC(=O)[C@H](C)NC)C4CCCCC4)C3)CC2)C[C@H]1C(=O)N[C@@H]1CCCc2ccccc21)C1CCCCC1` [Compound II, (2S,4S)-1-[(2S)-2-Cyclohexyl-2-[(2S)-2-(methylamino)propanamido]acetyl]-4-[3-[4-(3-[[(3S,5S)-1-[(2S)-2-cyclohexyl-2-[(2S)-2-(methylamino)propanamido]acetyl]-5-[[(1R)-1,2,3,4-tetrahydronaphthalen-1-yl]carbamoyl]pyrrolidin-3-yl]oxy]propyl)piperazin-1-yl]propoxy]-N-[(1R)-1,2,3,4-tetrahydronaphthalen-1-yl]pyrrolidine-2-carboxamide], for which the figures for the IC50 in assay [1], in assay [2] and in assay [3] were 0.01 to 0.1 µM, 0.0001 to 0.01 µM and 0.01 to 0.1 µM, respectively.

Turning to `CN[C@@H](C)C(=O)N[C@@H](C)C(=O)N1C[C@@H](OCCCN2CCN(CCCO[C@H]3C[C@@H](C(=O)N[C@@H]4CCCc5ccccc54)N(C(=O)[C@H](C)NC(=O)[C@H](C)NC)C3)CC2)C[C@H]1C(=O)N[C@@H]1CCCc2ccccc21` [Compound II-A, (2S,4S)-1-[(2S)-2-[(2S)-2-(Methylamino)propanamido]propanoyl]-4-{3-[4-(3-{[(3S,5S)-1-[(2S)-2-[(2S)-2-(methylamino)propanamido]propanoyl]-5-{[(1R)-1,2,3,4-tetrahydronaphthalen-1-yl]carbamoyl}pyrrolidin-3-yl]oxy}propyl)piperazin-1-yl]propoxy}-N-[(1R)-1,2,3,4-tetrahydronaphthalen-1-yl]pyrrolidine-2-carboxamide], the half-maximal inhibitory concentration (IC50) in assay [1] fell in the range of 0.1 to 1 µM; in assay [2] it was 0.0001 to 0.01 µM; in assay [3], 0.01 to 0.1 µM.

For the molecule `CC[C@H](NC(=O)[C@H](C)NC)C(=O)N1C[C@@H](OCCCN2CCN(CCCO[C@H]3C[C@@H](C(=O)N[C@@H]4CCCc5ccccc54)N(C(=O)[C@H](CC)NC(=O)[C@H](C)NC)C3)CC2)C[C@H]1C(=O)N[C@@H]1CCCc2ccccc21` [Compound II-B, (2S,4S)-1-[(2S)-2-[(2S)-2-(Methylamino)propanamido]butanoyl]-4-{3-[4-(3-{[(3S,5S)-1-[(2S)-2-[(2S)-2-(methylamino)propanamido]butanoyl]-5-{[(1R)-1,2,3,4-tetrahydronaphthalen-1-yl]carbamoyl}pyrrolidin-3-yl]oxy}propyl)piperazin-1-yl]propoxy}-N-[(1R)-1,2,3,4-tetrahydronaphthalen-1-yl]pyrrolidine-2-carboxamide], the IC50 in assay [1] was 0.01 to 0.1 µM; in assay [2], 0.0001 to 0.01 µM; in assay [3] it was 0.0001 to 0.01 µM.

Take `CN[C@@H](C)C(=O)N[C@H](C(=O)N1C[C@@H](OCCCN2CCN(CCCO[C@H]3C[C@@H](C(=O)N[C@@H]4CCCc5ccccc54)N(C(=O)[C@@H](NC(=O)[C@H](C)NC)C(C)C)C3)CC2)C[C@H]1C(=O)N[C@@H]1CCCc2ccccc21)C(C)C` [Compound II-C, (2S,4S)-1-[(2S)-3-Methyl-2-[(2S)-2-(methylamino)propanamido]butanoyl]-4-{3-[4-(3-{[(3S,5S)-1-[(2S)-3-methyl-2-[(2S)-2-(methylamino)propanamido]butanoyl]-5-{[(1R)-1,2,3,4-tetrahydronaphthalen-1-yl]carbamoyl}pyrrolidin-3-yl]oxy}propyl)piperazin-1-yl]propoxy}-N-[(1R)-1,2,3,4-tetrahydronaphthalen-1-yl]pyrrolidine-2-carboxamide]: the IC50 in assay [1], in assay [2] and in assay [3] was 0.0001 to 0.01 µM throughout.

Consider `CN[C@@H](C)C(=O)N[C@H](C(=O)N1C[C@@H](OCCCN2CCN(CCCO[C@H]3C[C@@H](C(=O)N[C@@H]4CCCc5ccccc54)N(C(=O)[C@@H](NC(=O)[C@H](C)NC)C(C)(C)C)C3)CC2)C[C@H]1C(=O)N[C@@H]1CCCc2ccccc21)C(C)(C)C` [Compound II-D, (2S,4S)-1-[(2S)-3,3-Dimethyl-2-[(2S)-2-(methylamino)propanamido]butanoyl]-4-[3-[4-(3-[[(3S,5S)-1-[(2S)-3,3-dimethyl-2-[(2S)-2-(methylamino)propanamido]butanoyl]-5-[[(1R)-1,2,3,4-tetrahydronaphthalen-1-yl]carbamoyl]pyrrolidin-3-yl]oxy]propyl)piperazin-1-yl]propoxy]-N-[(1R)-1,2,3,4-tetrahydronaphthalen-1-yl]pyrrolidine-2-carboxamide], for which the IC50 in assay [1] lay within 0.01 to 0.1 µM; in assay [2], 0.0001 to 0.01 µM; in assay [3], 0.01 to 0.1 µM.
